The source of these data is PubChem BioAssay (NCI).

Common to all, as to assay: NCI anticancer screen, dose series, 48 h
Experiment [1] deals with UACC-257 melanoma.
The subject of experiment [2] is HOP-92 NSCLC.
Experiment [3] deals with HCT-15 colon.
The subject of experiment [4] is NCI-H23 lung.
In experiment [5] the test system is SK-MEL-5 melanoma.
In experiment [6] the test system is SK-MEL-28 melanoma.
Experiment [7] relates to SK-MEL-2 melanoma.
Experiment [8] deals with A549 NSCLC.
In experiment [9] the test system is CCRF-CEM leukemia.
In experiment [10] the test system is KM12 colon.

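Compound exposure: 48 hours, 5 concentrations, 96-well plates. GI50 = concentration required for 50% inhibition of growth. TGI is the concentration that stops growth completely.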

For `CC(C)c1nc(N(C)S(C)(=O)=O)nc(-c2ccc(F)cc2)c1/C=C/[C@@H](O)C[C@@H](O)CC(=O)O`, the GI50 in experiment [1] was greater than 100 µM; in experiment [2], 0.467 µM; in experiment [3], 57.4 µM; in [4], greater than 100 µM; in [5] it was 52.7 µM; in experiment [6], greater than 100 µM. Besides, the GI50 in experiment [7] was 26.2 µM; in [8] it was greater than 100 µM; in experiment [9] it was greater than 100 µM; in experiment [10] it was greater than 100 µM. For the same molecule, the TGI was greater than 100 µM in experiment [1]; 6.68 µM in [2]; greater than 100 µM in experiment [3]; greater than 100 µM in [4]; greater than 100 µM in experiment [5]; greater than 100 µM in experiment [6]. For the same molecule, the TGI in [7], in experiment [8], in experiment [9] and in experiment [10] was greater than 100 µM throughout.
As to `Cc1ccc(Oc2ccccc2N)cc1`, the TGI was greater than 100 µM in experiment [1]; greater than 100 µM in experiment [2]; greater than 100 µM in [3]; greater than 100 µM in experiment [4]; 26.2 µM in experiment [5]; 80.2 µM in experiment [6]. For the same molecule, the TGI in [7], in experiment [8], in [9] and in experiment [10] was greater than 100 µM in each case.
Regarding `Cc1cc(Cl)ccc1OCC(=O)Nc1nc(N)nc(N)n1`, the TGI in experiment [1], in [2], in experiment [3], in [4], in experiment [5] and in experiment [6] was greater than 100 µM in each case. In addition, the TGI in [7], in [8], in [9] and in experiment [10] was greater than 100 µM throughout.
Consider `O=C(C#Cc1ccccc1)N1c2ccccc2CC1c1c[nH]c2ccccc12` (stereo not given), for which the TGI worked out at 42 µM in [1]; 32.5 µM in experiment [2]; 24.9 µM in [3]; 32.4 µM in experiment [4]; 30 µM in experiment [5]; 30.5 µM in experiment [6]. For the same molecule, the TGI in experiment [7] turned out to be 26.6 µM; in experiment [8] it was 49.1 µM; in experiment [9], 32 µM; in [10], 31.5 µM.
For `Cc1ncc(C(=O)Nc2ccc(CN3CCN(C)CC3)c(C(F)(F)F)c2)cc1C#Cc1ccc(N)nc1`, the GI50 is 0.582 µM in experiment [1]; 0.116 µM in experiment [2]; 0.224 µM in experiment [3]; 0.6 µM in [4]; 0.532 µM in [5]; 0.251 µM in experiment [6]. Besides, the GI50 in experiment [7] is 0.212 µM; in [8] it was 0.531 µM; in experiment [9] it was 0.598 µM; in [10], 0.0135 µM. Moreover, the TGI in [1] is 3.25 µM; in experiment [2], 0.935 µM; in experiment [3], 3.7 µM; in [4] it was 4.13 µM; in experiment [5] it was 1 µM; in experiment [6] it was 1.3 µM. For the same molecule, the TGI in experiment [7] came to 0.816 µM; in [8], 4.41 µM; in experiment [9] it was 12.3 µM; in experiment [10] it was 1.21 µM.
For the molecule `CCOc1ccc2c(c1)C(=O)c1c-2n(CCCBr)c(=O)c2cc([N+](=O)[O-])ccc12`, the GI50 in experiment [1] is 40.9 µM; in experiment [2], 37.1 µM; in experiment [3], 36 µM; in experiment [4] it was 7.14 µM; in experiment [5] it was 8.74 µM; in [6], 88.8 µM. Also, the GI50 is greater than 100 µM in experiment [7], 29 µM in experiment [8], 3.74 µM in experiment [9] and 56 µM in [10]. Also, the TGI was 98.3 µM in experiment [1]; greater than 100 µM in experiment [2]; greater than 100 µM in [3]; greater than 100 µM in [4]; 25.7 µM in [5]; greater than 100 µM in experiment [6]. Also, the TGI in [7], in experiment [8], in experiment [9] and in [10] was greater than 100 µM in each case.
Take `CCOc1ccc(/C(C=O)=C(\Cl)c2ccc(OC)cc2)cc1`: the TGI in experiment [1], in experiment [2], in experiment [3], in experiment [4], in experiment [5] and in experiment [6] was greater than 100 µM throughout. Also, the TGI in [7], in [8], in experiment [9] and in experiment [10] was greater than 100 µM in each case.
